In brackets after ≈: the same amount, converted by molar mass.
Experiments:
[1] = test system: HCC1937; assay: MTT cell proliferation assay, HCC1937; assay type: cell-based; conditions: Homo sapiens, 48 h, read-out: In vitro cytotoxic activity IC50, HCC1937
Procedure: (§1) Compounds 5a–o were evaluated for their cytotoxic activity in vitro against some human cancer cell lines, including A549, HCC1937 and MDA-MB-468 by applying a MTT colorimetric assay. Doxorubicin was used as positive control. The calculated IC50 values were reported differently according to the different cancer cells.
(§2) All target compounds were evaluated for their cytotoxic activities (%) in vitro against human cancer cell lines, including A549, HCC1937 and MDA-MB-468, by applying the MTT colorimetric assay. The cell concentration was adjusted to 2 × 10^4/mL using complete culture medium, then 100 μL cell suspension was inoculated in each well of a 96-well culture plate and cultured for 24 h. All the target compounds were adjusted to different concentrations ranging from 1.25 μmol/L to 40 μmol/L, then 100 μL solution was added to each well of 96-well culture plate and 100 μL complete culture medium was added to the control group. Cells were placed under 5% CO2 at 37 °C and cultured for 48 h. Then 5 mg/mL MTT 20 μL was added to each well of 96-well culture plate and cultured for another 2~4 h. The medium was removed and 150 μL DMSO was added to each well of 96-well culture plate, then oscillated and mixed 15 min. The absorbance (A) of each well was measured in terms of optical density at a wavelength of 570 nm, each cell viability assay was performed in triplicate and taken the average value, then calculated the IC50. Doxorubicin was the positive control drug.

[2] = In vitro cytotoxic activity, Hek293; assay type: cell-based; conditions: human, Hek293 cells; unit inferred
Text: Table 1 In vitro cytotoxic activity of target compounds: 5a–o. | column: Hek293

[3] = test system: A549; assay: MTT cell proliferation assay, A549; assay type: cell-based; conditions: Homo sapiens, 48 h, read-out: In vitro cytotoxic activity IC50, A549
Procedure: as §1, §2

[4] = test system: A549, HCC1937 and MDA-MB-468 cell lines; assay: MTT assay, statements over the three cell lines; assay type: cell-based, human; conditions: for IC50: Homo sapiens, range over the three cell lines and over 5a and 5b, read-out: IC50 toward the A549, HCC1937 and MDA-MB-468 cell lines; for Potency compared to 5a and 5b / Activity toward the cell lines (in words): SAR discussion
Procedure: as §1, §2

[5] = test system: MDA-MB-468; assay: MTT cell proliferation assay, MDA-MB-468; assay type: cell-based; conditions: Homo sapiens, 48 h, read-out: In vitro cytotoxic activity IC50, MDA-MB-48
Procedure: as §1, §2

[6] = test system: HCC1937 cells; assay: Annexin V-FITC/PI flow cytometry apoptosis; assay type: cell-based, human; conditions: control 6.7%
Procedure: When the concentration of 5b was 7.5 μM, the proportion of apoptotic cells was 11.4%. When the concentration was 10 μM, the proportion of apoptotic cells was 13.4%. When the concentration was 15 μM, the proportion of apoptotic cells was 12.9%. When the concentration was 20 μM, the proportion of apoptotic cells was 29%. The proportion of apoptotic cells in control group was 6.7%. As the concentration increased, the number of apoptotic cells increased gradually and the number of apoptotic cells and concentration were directly proportional, although there was no significant difference between 10 μM and 15 μM.
The Annexin V-FITC apoptosis detection kit was used to detect apoptotic cells according to the manufacturer’s protocol. Briefly, cells were gently washed with PBS and collected using trypsinization, disaggregated to a single cell suspension and incubated with 5 μL of Annexin V-FITC and 10 μL of a PI solution for 15 min in the dark. The apoptotic cells were detected using a flow cytometer (BD, San Diego, CA, USA), then quantified and the percentage of apoptotic cells measured.

[7] = test system: KM20L2; set-up: method as in PMID 9051914; conditions: cited from earlier work
[8] = test system: SK-MEL-5; set-up: method as in PMID 9051914; conditions: cited from earlier work

Compound	melting point [°C]	IC50 [4] [µM]	IC50 [1] [µM]	IC50 [2] [µM]	IC50 [3] [µM]	IC50 [5] [µM]	Proportion of apoptotic cells ([6]; HCC1937, 7.5 μM) [%]	Proportion of apoptotic cells ([6]; HCC1937, 10 μM) [%]	Proportion of apoptotic cells ([6]; HCC1937, 15 μM) [%]	Proportion of apoptotic cells ([6]; HCC1937, 20 μM) [%]	Potency compared to 5a and 5b [4]	Activity toward the cell lines (in words) [4]	ED50 [7] [µg/mL]	ED50 [8] [µg/mL]
O=c1[nH]c2cc(S(=O)(=O)N3CCOCC3)ccc2n1Cc1ccccc1 [5a, Benzyl-5-(morpholinosulfonyl)-1H-benzo[d]imidazol-2(3H)-one]	198.5 to 200.1	2.6 to 9	7.8 ± 0.49	> 10000	5.2 ± 0.35	9 ± 0.67								
CN1CCN(S(=O)(=O)c2ccc3c(c2)[nH]c(=O)n3Cc2ccccc2)CC1 [5b, Benzyl-5-(4-methylpiperazin-1-ylsulfonyl)-1H-benzo[d]imidazol-2(3H)-one]	107.2 to 108.1	2.6 to 9	2.6 ± 0.21	293	3.1 ± 0.17	6.3 ± 0.45	11.4	13.4	12.9	29				
O=c1[nH]c2cc(S(=O)(=O)NC3CCCCC3)ccc2n1Cc1ccccc1 [5c, Benzyl-N-cyclohexyl-2-oxo-2,3-dihydro-1H-benzo[d]imidazole-5-sulfonamide]	166.7 to 167.2		105 ± 8.9	248	88 ± 6.1	> 200					equivalent to 10-fold inferior potency			
O=c1[nH]c2cc(S(=O)(=O)N3CCCCC3)ccc2n1Cc1ccccc1 [5d, Benzyl-5-(piperidin-1-ylsulfonyl)-1H-benzo[d]imidazol-2(3H)-one]	189.4 to 190.5		85 ± 7.1	756	77 ± 6.8	73 ± 6.9					equivalent to 10-fold inferior potency			
O=c1[nH]c2cc(S(=O)(=O)NCc3ccccc3)ccc2n1Cc1ccccc1 [5e, N,1-Dibenzyl-2-oxo-2,3-dihydro-1H-benzo[d]imidazole-5-sulfonamide]	160.6 to 185.9		127 ± 9.9	> 10000	> 200	> 200						almost no activity		
O=C(c1ccccc1)c1cccc(NS(=O)(=O)c2ccc3c(c2)[nH]c(=O)n3Cc2ccccc2)c1 [5f, N-(3-Benzoylphenyl)-1-benzyl-2-oxo-2,3-dihydro-1H-benzo[d]imidazole-5-sulfonamide]	85.2 to 86.3		> 200	> 10000	> 200	82 ± 6.1						almost no activity		
O=c1[nH]c2cc(S(=O)(=O)Nc3ccccc3)ccc2n1Cc1ccccc1 [5g, Benzyl-2-oxo-N-phenyl-2,3-dihydro-1H-benzo[d]imidazole-5-sulfonamide]	91.9 to 93.3		152 ± 9.8	2000	> 200	> 200						almost no activity		
O=C1N[C@H]2n3c(cc(Br)c3Br)C(=O)N3CCC[C@]23N1 [Dibromophakellstatin]													0.11 (≈ 0.282 µM)	0.11 (≈ 0.282 µM)
COc1cccc2c1C(=O)c1c(O)c3c(c(O)c1C2=O)C[C@@](O)(C(=O)CO)C[C@@H]3O[C@H]1C[C@H](N)[C@H](O)[C@H](C)O1 [Doxorubicin, reference compound]			4.8 ± 0.22	12.2	2.5 ± 0.13	2.7 ± 0.19								

The next lines start with results.

melting point [°C]	IC50 [4] [µM]	Compound	IC50 [1] [µM]	IC50 [2] [µM]	IC50 [3] [µM]	IC50 [5] [µM]	Proportion of apoptotic cells ([6]; HCC1937, 7.5 μM) [%]	Proportion of apoptotic cells ([6]; HCC1937, 10 μM) [%]	Proportion of apoptotic cells ([6]; HCC1937, 15 μM) [%]	Proportion of apoptotic cells ([6]; HCC1937, 20 μM) [%]	Potency compared to 5a and 5b [4]	Activity toward the cell lines (in words) [4]	ED50 [7] [µg/mL]	ED50 [8] [µg/mL]
168.6 to 170.3		O=c1[nH]c2cc(S(=O)(=O)NC3CC3)ccc2n1Cc1ccccc1 [5h, Benzyl-N-cyclopropyl-2-oxo-2,3-dihydro-1H-benzo[d]imidazole-5-sulfonamide]	> 200	370	> 200	> 200						almost no activity		
173.4 to 174.7		CC(C)NS(=O)(=O)c1ccc2c(c1)[nH]c(=O)n2Cc1ccccc1 [5i, Benzyl-N-isopropyl-2-oxo-2,3-dihydro-1H-benzo[d]imidazole-5-sulfonamide]	> 200	709	> 200	> 200						almost no activity		
223.6 to 225.7		Cc1ccccc1NS(=O)(=O)c1ccc2c(c1)[nH]c(=O)n2Cc1ccccc1 [5j, Benzyl-2-oxo-N-o-tolyl-2,3-dihydro-1H-benzo[d]imidazole-5-sulfonamide]	> 200	666	> 200	> 200						almost no activity		
187 to 188.5		O=c1[nH]c2cc(S(=O)(=O)NC3CCCCC3)ccc2n1CCc1ccccc1 [5k, N-Cyclohexyl-2-oxo-1-phenethyl-2,3-dihydro-1H-benzo[d]imidazole-5-sulfonamide]	> 200	384	116 ± 7.6	135 ± 9.7								
218.2 to 219.6		CN1CCN(S(=O)(=O)c2ccc3c(c2)[nH]c(=O)n3CCc2ccccc2)CC1 [5l, 5-(4-Methylpiperazin-1-ylsulfonyl)-1-phenethyl-1H-benzo[d]imidazol-2(3H)-one]	18 ± 1.2	6310	15 ± 1.1	22 ± 1.6								
217.8 to 218.9		O=c1[nH]c2cc(S(=O)(=O)NC3CC3)ccc2n1CCc1ccccc1 [5m, N-Cyclopropyl-2-oxo-1-phenethyl-2,3-dihydro-1H-benzo[d]imidazole-5-sulfonamide]	> 200	448	> 200	> 200								
183.3 to 184.3		O=c1[nH]c2cc(S(=O)(=O)N3CCCCC3)ccc2n1CCc1ccccc1 [5n, Phenethyl-5-(piperidin-1-ylsulfonyl)-1H-benzo[d]imidazol-2(3H)-one]	22 ± 1.3	> 10000	16 ± 0.9	12 ± 1.02								
102.3 to 104.1		O=c1[nH]c2cc(S(=O)(=O)N3CCOCC3)ccc2n1CCc1ccccc1 [5o, 5-(Morpholinosulfonyl)-1-phenethyl-1H-benzo[d]imidazol-2(3H)-one]	11 ± 0.71	> 10000	9.7 ± 0.88	15 ± 0.93								
